Results as given in PubChem BioAssay (NCI).
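Briefly, cells in 96-well plates were exposed to five compound concentrations for 48 h, and endpoints were estimated by linear interpolation. TGI marks complete inhibition of growth.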

Legend:
Test in all cases: NCI tumour cell line growth inhibition, 48 h
[1] = test system: TK-10 renal
[2] = test system: NCI-H226 lung
[3] = test system: DLD-1 colon
[4] = test system: SR leukemia
[5] = test system: KM12 colon
[6] = test system: IGROV1 ovarian
[7] = test system: HT29 colon
[8] = test system: SK-OV-3 ovarian
[9] = test system: SNB-75 CNS
[10] = test system: XF 498 CNS
[11] = test system: OVCAR-8 ovarian
[12] = test system: ACHN renal
[13] = test system: HCT-116 colon
[14] = test system: SNB-19 CNS
[15] = test system: RXF 393 renal
[16] = test system: A498 renal
[17] = test system: HOP-18 NSCLC
[18] = test system: CCRF-CEM leukemia
[19] = test system: K-562 leukemia
[20] = test system: OVCAR-5 ovarian
[21] = test system: NCI-H460 lung
[22] = test system: EKVX NSCLC
[23] = test system: SK-MEL-28 melanoma
[24] = test system: KM20L2 colon
[25] = test system: UO-31 renal
[26] = test system: RPMI-8226 leukemia
[27] = test system: M14 melanoma
[28] = test system: SK-MEL-2 melanoma
[29] = test system: A549 NSCLC
[30] = test system: MOLT-4 leukemia
[31] = test system: 786-0 renal
[32] = test system: MALME-3M melanoma
[33] = test system: M19-MEL melanoma
[34] = test system: SK-MEL-5 melanoma
[35] = test system: U251 CNS
[36] = test system: NCI-H522 lung
[37] = test system: RXF-631 renal
[38] = test system: UACC-257 melanoma
[39] = test system: NCI-H23 lung
[40] = test system: SNB-78 CNS
[41] = test system: LXFL 529 NSCLC
[42] = test system: SF-539 CNS
[43] = test system: HOP-62 NSCLC
[44] = test system: HCT-15 colon
[45] = test system: SN12C renal
[46] = test system: SW-620 colon
[47] = test system: SF-268 CNS
[48] = test system: SF-295 CNS

Measured: TGI

Cc1ccc(C2=C(c3ccc(C)cc3)C(c3ccc(C)cc3)=C(c3ccc(C)cc3)C2=O)cc1
> 100 µM: all assays above
